The target of assay [1] is Gamma-aminobutyric acid receptor subunit alpha-1/alpha-2/beta-2/gamma-2 (Homo sapiens, UniProt P14867+P18507+P47869+P47870). The class given is functional, cell-based.
Assay [2] concerns the target 5-hydroxytryptamine receptor 2A (Homo sapiens, UniProt P28223). Type of assay: functional, cell-based.
For assay [3], the target named is Sodium-dependent serotonin transporter (Homo sapiens, UniProt P31645).
Assay [4] concerns the target Melanocortin receptor 4 (Homo sapiens, UniProt P32245).
For assay [5], the target named is T1, Progesterone receptor (Homo sapiens, UniProt P06401).
T1 sequence (P06401 whole entry): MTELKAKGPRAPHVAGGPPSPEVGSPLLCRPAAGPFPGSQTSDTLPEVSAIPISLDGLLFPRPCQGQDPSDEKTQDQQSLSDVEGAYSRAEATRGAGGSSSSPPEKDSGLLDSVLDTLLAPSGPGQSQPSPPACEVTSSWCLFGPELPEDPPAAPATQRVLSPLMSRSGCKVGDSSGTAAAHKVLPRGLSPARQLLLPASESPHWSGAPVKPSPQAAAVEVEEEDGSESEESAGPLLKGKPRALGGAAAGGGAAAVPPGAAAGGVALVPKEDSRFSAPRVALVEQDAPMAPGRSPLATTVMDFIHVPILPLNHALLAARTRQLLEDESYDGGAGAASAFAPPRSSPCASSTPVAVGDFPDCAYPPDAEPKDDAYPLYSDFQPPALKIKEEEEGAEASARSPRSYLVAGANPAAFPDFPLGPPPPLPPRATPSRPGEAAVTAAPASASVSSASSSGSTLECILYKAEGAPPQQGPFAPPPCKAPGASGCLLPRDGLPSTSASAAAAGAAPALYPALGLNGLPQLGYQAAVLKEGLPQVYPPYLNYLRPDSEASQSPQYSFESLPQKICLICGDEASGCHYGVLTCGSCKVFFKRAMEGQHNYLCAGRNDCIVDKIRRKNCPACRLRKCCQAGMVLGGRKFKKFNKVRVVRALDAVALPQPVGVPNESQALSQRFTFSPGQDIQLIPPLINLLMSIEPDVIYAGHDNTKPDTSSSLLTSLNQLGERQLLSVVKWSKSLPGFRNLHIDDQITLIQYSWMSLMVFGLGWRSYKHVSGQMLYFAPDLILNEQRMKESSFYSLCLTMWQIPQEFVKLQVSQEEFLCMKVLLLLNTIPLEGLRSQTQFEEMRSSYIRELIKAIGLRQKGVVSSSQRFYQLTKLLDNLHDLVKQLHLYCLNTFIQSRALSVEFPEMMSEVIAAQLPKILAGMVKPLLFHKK

Assay [6] has as its target D(1A) dopamine receptor (Homo sapiens, UniProt P21728).
In assay [7] the target is T2, Endothelin receptor type B (Homo sapiens, UniProt P24530).
T2 sequence (P24530 whole entry): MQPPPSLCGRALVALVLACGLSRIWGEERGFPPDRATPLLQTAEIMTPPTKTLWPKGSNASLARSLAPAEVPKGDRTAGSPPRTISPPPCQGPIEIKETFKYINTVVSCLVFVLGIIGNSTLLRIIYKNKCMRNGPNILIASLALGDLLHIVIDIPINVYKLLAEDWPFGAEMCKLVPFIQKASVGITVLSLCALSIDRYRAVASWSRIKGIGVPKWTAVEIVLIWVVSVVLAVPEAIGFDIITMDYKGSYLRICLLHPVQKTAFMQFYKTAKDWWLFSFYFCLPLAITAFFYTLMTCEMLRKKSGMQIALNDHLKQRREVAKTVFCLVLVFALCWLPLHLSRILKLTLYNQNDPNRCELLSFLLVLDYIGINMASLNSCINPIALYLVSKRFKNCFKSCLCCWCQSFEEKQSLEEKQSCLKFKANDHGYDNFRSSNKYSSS

For assay [8], the target named is Glucagon receptor (Homo sapiens, UniProt P47871).
Assay [9] deals with T3, Gastric inhibitory polypeptide receptor (Homo sapiens, UniProt P48546).
T3 sequence (P48546 whole entry): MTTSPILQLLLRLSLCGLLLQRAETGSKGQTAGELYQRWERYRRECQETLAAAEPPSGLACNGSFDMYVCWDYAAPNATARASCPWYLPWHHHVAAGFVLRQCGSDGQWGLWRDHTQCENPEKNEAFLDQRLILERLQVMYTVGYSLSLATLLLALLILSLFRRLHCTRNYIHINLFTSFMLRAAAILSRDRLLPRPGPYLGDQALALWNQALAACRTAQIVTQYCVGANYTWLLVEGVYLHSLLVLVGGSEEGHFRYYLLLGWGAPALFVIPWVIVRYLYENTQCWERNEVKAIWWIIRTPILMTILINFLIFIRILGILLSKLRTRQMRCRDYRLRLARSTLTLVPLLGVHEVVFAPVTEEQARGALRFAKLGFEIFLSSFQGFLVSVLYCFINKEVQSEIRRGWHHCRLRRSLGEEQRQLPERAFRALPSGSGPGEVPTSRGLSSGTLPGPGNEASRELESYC

Assay [10] addresses Neurotensin receptor type 1 (Homo sapiens, UniProt P30989).
For assay [11], the target named is Beta-3 adrenergic receptor (Homo sapiens, UniProt P13945).

A value given as a limit tells only on which side of the number the result lay.
Further: assay procedure not described here.

Glucagon receptor, sequence (P47871 whole entry): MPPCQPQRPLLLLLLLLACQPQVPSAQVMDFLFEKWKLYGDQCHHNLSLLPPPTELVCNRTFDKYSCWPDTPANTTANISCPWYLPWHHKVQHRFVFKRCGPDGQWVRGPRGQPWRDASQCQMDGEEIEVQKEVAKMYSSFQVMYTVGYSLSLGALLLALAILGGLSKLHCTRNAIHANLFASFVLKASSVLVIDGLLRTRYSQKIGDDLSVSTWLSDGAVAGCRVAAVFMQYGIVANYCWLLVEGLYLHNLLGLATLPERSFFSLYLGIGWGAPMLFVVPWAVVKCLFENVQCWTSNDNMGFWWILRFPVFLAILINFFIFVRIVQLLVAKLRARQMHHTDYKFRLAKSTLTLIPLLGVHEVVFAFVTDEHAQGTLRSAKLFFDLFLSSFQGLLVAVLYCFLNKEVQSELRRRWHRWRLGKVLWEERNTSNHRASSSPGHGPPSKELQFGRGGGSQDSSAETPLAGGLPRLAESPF
Neurotensin receptor type 1, sequence (P30989 whole entry): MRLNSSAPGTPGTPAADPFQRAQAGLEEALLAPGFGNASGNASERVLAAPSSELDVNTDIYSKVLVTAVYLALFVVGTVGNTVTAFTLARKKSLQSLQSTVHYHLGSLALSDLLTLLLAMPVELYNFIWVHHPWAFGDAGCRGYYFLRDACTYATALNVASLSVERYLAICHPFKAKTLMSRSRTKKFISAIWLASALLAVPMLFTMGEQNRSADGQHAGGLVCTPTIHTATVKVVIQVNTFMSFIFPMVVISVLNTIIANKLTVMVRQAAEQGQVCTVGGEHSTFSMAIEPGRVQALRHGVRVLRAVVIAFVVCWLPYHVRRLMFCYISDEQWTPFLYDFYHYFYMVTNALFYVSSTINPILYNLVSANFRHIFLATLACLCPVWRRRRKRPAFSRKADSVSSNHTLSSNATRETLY
Beta-3 adrenergic receptor, sequence (P13945 whole entry): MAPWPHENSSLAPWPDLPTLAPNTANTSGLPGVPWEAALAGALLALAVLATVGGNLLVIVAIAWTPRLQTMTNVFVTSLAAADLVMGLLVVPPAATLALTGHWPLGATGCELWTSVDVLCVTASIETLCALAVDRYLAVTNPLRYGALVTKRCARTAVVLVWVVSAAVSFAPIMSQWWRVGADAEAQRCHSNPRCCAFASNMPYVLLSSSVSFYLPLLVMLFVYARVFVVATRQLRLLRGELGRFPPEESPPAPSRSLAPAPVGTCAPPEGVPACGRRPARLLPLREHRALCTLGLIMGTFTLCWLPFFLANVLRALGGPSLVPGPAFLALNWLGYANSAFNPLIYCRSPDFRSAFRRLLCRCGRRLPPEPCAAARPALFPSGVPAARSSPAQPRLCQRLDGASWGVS
D(1A) dopamine receptor, sequence (P21728 whole entry): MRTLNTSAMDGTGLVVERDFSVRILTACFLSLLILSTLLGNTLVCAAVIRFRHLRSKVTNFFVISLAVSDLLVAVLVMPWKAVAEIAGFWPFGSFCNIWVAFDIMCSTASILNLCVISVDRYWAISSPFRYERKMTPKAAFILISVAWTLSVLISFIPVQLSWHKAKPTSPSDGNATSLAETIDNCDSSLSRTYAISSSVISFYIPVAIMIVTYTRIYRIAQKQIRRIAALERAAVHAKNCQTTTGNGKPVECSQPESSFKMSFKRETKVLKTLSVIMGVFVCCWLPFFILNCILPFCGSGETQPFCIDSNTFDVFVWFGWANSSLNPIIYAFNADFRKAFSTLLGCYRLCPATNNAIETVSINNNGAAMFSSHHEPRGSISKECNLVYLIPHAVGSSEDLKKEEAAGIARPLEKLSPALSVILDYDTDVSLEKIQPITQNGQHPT
5-hydroxytryptamine receptor 2A, sequence (P28223 whole entry): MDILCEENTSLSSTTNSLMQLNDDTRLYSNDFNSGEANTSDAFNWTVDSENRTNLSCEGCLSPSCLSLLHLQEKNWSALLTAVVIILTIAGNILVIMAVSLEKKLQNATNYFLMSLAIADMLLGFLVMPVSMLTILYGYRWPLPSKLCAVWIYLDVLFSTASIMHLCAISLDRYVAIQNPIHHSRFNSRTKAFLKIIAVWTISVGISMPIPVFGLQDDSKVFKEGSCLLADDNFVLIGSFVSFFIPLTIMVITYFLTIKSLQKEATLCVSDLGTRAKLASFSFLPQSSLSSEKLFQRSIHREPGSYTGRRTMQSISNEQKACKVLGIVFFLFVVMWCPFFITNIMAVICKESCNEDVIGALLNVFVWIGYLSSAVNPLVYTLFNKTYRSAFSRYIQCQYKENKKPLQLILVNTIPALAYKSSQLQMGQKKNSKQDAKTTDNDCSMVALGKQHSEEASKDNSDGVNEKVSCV
Sodium-dependent serotonin transporter, sequence (P31645 whole entry): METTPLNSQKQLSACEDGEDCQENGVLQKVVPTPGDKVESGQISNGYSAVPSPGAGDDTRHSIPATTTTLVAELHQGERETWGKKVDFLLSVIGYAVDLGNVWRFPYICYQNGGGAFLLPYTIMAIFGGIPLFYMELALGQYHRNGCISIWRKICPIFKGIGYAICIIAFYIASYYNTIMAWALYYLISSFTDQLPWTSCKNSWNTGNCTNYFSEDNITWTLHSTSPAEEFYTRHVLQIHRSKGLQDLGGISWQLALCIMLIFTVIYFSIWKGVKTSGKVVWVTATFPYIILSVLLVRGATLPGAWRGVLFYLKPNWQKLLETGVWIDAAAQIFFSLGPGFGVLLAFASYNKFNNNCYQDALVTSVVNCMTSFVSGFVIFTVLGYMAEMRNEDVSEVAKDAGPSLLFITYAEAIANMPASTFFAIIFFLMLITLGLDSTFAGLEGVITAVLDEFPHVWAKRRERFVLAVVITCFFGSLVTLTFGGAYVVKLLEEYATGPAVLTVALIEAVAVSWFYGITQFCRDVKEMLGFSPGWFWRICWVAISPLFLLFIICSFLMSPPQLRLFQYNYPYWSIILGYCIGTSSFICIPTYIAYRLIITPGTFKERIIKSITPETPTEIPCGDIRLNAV
Gamma-aminobutyric acid receptor subunit alpha-1/alpha-2/beta-2/gamma-2, sequence (P14867 whole entry): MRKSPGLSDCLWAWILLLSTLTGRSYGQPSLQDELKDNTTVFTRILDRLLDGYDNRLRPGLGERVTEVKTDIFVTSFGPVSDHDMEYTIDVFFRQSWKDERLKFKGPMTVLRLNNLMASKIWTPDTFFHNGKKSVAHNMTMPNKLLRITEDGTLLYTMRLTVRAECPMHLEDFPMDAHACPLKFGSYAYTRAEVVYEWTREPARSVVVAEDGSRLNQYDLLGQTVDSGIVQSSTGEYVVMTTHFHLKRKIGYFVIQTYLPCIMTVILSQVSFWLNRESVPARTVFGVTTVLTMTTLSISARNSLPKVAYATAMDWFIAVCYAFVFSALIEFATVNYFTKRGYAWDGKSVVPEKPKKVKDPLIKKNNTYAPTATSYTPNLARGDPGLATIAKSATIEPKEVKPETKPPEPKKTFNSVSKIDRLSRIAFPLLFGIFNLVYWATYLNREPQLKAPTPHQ
Gamma-aminobutyric acid receptor subunit alpha-1/alpha-2/beta-2/gamma-2, sequence (P47870 whole entry): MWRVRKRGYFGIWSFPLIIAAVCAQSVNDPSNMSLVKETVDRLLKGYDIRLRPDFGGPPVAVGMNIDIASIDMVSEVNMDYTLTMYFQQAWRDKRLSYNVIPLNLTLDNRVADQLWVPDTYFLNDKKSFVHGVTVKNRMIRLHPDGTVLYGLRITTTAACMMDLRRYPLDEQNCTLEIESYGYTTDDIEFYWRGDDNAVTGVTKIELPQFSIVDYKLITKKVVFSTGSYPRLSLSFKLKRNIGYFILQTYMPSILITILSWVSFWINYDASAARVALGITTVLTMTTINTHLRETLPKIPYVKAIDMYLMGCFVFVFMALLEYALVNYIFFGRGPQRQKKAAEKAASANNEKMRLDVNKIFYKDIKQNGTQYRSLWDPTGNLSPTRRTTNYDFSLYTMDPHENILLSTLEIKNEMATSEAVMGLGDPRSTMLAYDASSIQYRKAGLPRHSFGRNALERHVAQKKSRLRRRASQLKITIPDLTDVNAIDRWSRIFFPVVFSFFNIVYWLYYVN
Gamma-aminobutyric acid receptor subunit alpha-1/alpha-2/beta-2/gamma-2, sequence (P18507 whole entry): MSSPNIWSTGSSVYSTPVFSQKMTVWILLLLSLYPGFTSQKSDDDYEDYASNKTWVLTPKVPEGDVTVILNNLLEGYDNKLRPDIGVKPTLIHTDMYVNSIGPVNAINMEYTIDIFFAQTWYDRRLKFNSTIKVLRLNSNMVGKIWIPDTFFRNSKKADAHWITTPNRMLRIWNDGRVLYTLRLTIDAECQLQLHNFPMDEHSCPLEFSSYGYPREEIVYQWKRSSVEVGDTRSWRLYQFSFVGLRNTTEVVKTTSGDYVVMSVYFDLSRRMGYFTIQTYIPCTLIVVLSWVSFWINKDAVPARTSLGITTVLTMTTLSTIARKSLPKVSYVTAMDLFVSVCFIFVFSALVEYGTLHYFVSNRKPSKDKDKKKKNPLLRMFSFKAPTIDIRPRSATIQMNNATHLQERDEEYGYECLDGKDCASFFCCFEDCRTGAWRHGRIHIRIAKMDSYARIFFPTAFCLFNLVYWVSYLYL
Gamma-aminobutyric acid receptor subunit alpha-1/alpha-2/beta-2/gamma-2, sequence (P47869 whole entry): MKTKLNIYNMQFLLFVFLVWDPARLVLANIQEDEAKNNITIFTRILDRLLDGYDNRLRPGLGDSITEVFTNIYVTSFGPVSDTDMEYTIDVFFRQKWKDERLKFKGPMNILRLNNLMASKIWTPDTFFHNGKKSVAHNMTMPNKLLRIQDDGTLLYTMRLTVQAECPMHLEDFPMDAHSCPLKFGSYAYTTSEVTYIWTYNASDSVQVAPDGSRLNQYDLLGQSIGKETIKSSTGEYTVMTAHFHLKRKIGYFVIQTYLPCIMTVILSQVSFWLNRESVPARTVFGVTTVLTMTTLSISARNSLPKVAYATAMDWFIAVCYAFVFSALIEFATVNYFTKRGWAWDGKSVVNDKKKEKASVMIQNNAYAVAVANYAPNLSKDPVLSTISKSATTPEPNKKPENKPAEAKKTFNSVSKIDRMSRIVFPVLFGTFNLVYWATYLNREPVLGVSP

`CC(=N)N1CC[C@H](SC2=C(C(=O)O)N3C(=O)[C@H]([C@@H](C)O)[C@H]3C2)C1`: the AC50 in [1] is > 800 µM; in [2], > 300 µM; in assay [3], 37 µM.
Regarding `O=C1CN2Cc3c(ccc(Cl)c3Cl)N=C2N1` [ANAGRELIDE], the AC50 in assay [2], in assay [4], in assay [5] and in assay [3] was > 30 µM in each case.
As to `CCc1oc2ccccc2c1C(=O)c1cc(Br)c(O)c(Br)c1` [BENZBROMARONE], the concentration at half-maximal activity (AC50) in [1], in assay [4] and in assay [5] was > 30 µM throughout.
With `C=C(C)[C@@H]1CCC(C)=C[C@H]1c1c(O)cc(CCCCC)cc1O` [CANNABIDIOL], the AC50 in [2] and in [3] was > 30 µM each time.
For `CO/N=C(\C(=O)N[C@@H]1C(=O)N2C(C(=O)O)=C(COC(N)=O)CS[C@H]12)c1ccco1` [CEFUROXIME], the AC50 in assay [1], in assay [2] and in assay [3] was > 30 µM throughout.
`[H]/N=C(\N/C(=N/[H])NCCCCCCNC(=N)NC(=N)Nc1ccc(Cl)cc1)Nc1ccc(Cl)cc1` [CHLORHEXIDINE]: the AC50 in [2] is > 10 µM; in assay [4] it was 0.271 µM; in [3], 1 µM.
For the compound `CNCC[C@H](Oc1cccc2ccccc12)c1cccs1` [DULOXETINE], the AC50 in assay [4] was 17.8 µM; in assay [5] it was > 30 µM.
In the case of `C#Cc1cccc(Nc2ncnc3cc(OCCOC)c(OCCOC)cc23)c1` [ERLOTINIB], the AC50 in assay [1] was > 30 µM.
Still for that read-out and setting: next, `CC1(C)O[C@@H]2C[C@H]3[C@@H]4C[C@H](F)C5=CC(=O)C=C[C@]5(C)[C@H]4[C@@H](O)C[C@]3(C)[C@]2(C(=O)CO)O1` [FLUNISOLIDE]: > 30 µM.
With `CCC(=O)O[C@@H](O[P@](=O)(CCCCc1ccccc1)CC(=O)N1C[C@H](C2CCCCC2)C[C@H]1C(=O)O)C(C)C` [FOSINOPRIL], the AC50 in assay [1] and in assay [2] was > 30 µM throughout.
In the case of `C[C@H]1Oc2cc(cnc2N)-c2c(nn(C)c2C#N)CN(C)C(=O)c2ccc(F)cc21` [LORLATINIB], the AC50 in [1], in assay [2] and in assay [3] was > 30 µM in each case.
For the compound `CC(=O)/N=c1/sc(S(N)(=O)=O)nn1C` [METHAZOLAMIDE], the AC50 in assay [2], in [4] and in assay [3] was > 10 µM throughout.
In the case of `CC(=O)Oc1ccccc1C(=O)Nc1ncc([N+](=O)[O-])s1` [NITAZOXANIDE], the AC50 in assay [2] is > 30 µM; in [3] it was 6.3 µM.
Compound `CNCCC=C1c2ccccc2CCc2ccccc21` [NORTRIPTYLINE] registered an AC50 in assay [6] of 0.386 µM.
With `CN(C)c1cc(CNCC(C)(C)C)c(O)c2c1C[C@H]1C[C@H]3[C@H](N(C)C)C(O)=C(C(N)=O)C(=O)[C@@]3(O)C(O)=C1C2=O` [OMADACYCLINE], the AC50 in assay [1] was > 30 µM; in assay [2], > 30 µM; in assay [3], 11 µM.
Turning to `CNC[C@H](O)c1cccc(O)c1` [PHENYLEPHRINE], the AC50 in assay [7], in [8], in assay [9], in assay [2], in [4] and in [10] was > 30 µM throughout. The AC50 was > 30 µM in assay [5], > 10 µM in assay [3] and > 10 µM in assay [6].
For `O=C1NC(=O)C(c2ccccc2)(c2ccccc2)N1` [PHENYTOIN], the AC50 in assay [11], in [7], in [8], in assay [9], in [4] and in assay [10] was > 30 µM in each case. Besides, the concentration at half-maximal activity (AC50) in assay [5] was > 30 µM.
For `CC(C)C[C@H](CN)CC(=O)O` [PREGABALIN], the AC50 in [11], in [7], in [1], in assay [8], in assay [9] and in assay [2] was > 30 µM throughout. Further, the AC50 in assay [4] is > 30 µM; in assay [10] it was > 30 µM; in assay [5], 20.2 µM; in [3], > 30 µM.
`CNC(=O)c1cc(Oc2ccc(NC(=O)Nc3ccc(Cl)c(C(F)(F)F)c3)c(F)c2)ccn1` [REGORAFENIB]: the AC50 in [2] and in assay [3] was > 30 µM each time.
In the case of `CCOc1cc(CC(=O)N[C@@H](CC(C)C)c2ccccc2N2CCCCC2)ccc1C(=O)O` [REPAGLINIDE], the concentration at half-maximal activity (AC50) in assay [1], in [2] and in assay [3] was > 30 µM throughout.
For `NC(=O)c1ncn([C@@H]2O[C@H](CO)[C@@H](O)[C@H]2O)n1` [RIBAVIRIN], the AC50 in [4] was > 10 µM.
Take `O=C(Nc1c(Cl)cncc1Cl)c1ccc(OC(F)F)c(OCC2CC2)c1` [ROFLUMILAST]: the AC50 in assay [2] and in assay [3] was > 30 µM each time.
On to `CCCN(CCc1cccs1)[C@H]1CCc2c(O)cccc2C1` [ROTIGOTINE], for which the AC50 in [1] is > 30 µM; in assay [2] it was 0.46 µM; in assay [3], 7.8 µM.
Regarding `CC[C@H]1OC(=O)[C@H](C)[C@@H](O[C@H]2C[C@@](C)(OC)[C@@H](O)[C@H](C)O2)[C@H](C)[C@@H](O[C@@H]2O[C@H](C)C[C@H](N(C)C)[C@H]2O)[C@](C)(O)C[C@@H](C)/C(=N\OCOCCOC)[C@H](C)[C@@H](O)[C@]1(C)O` [ROXITHROMYCIN], the AC50 in [1] is > 30 µM.
For the compound `CC(C)N(CCCCOCC(=O)NS(C)(=O)=O)c1cnc(-c2ccccc2)c(-c2ccccc2)n1` [SELEXIPAG], the AC50 in assay [2] and in assay [3] was > 30 µM in each case.
For the compound `CC(=O)S[C@@H]1CC2=CC(=O)CC[C@]2(C)[C@H]2CC[C@@]3(C)[C@@H](CC[C@@]34CCC(=O)O4)[C@H]12` [SPIRONOLACTONE], the AC50 in assay [11], in [7], in [1], in assay [8], in assay [9] and in assay [4] was > 30 µM each time. Moreover, the AC50 in assay [10] was > 30 µM; in assay [6], > 10 µM.
As to `Cn1c(=O)c2[nH]cnc2n(C)c1=O` [THEOPHYLLINE], the concentration at half-maximal activity (AC50) in [7] is > 30 µM; in assay [8], > 30 µM; in assay [4], > 30 µM; in assay [10] it was > 30 µM; in assay [5], > 30 µM; in assay [6], > 10 µM.
Consider `CN1CCN(CCCN2c3ccccc3Sc3ccc(S(=O)(=O)N(C)C)cc32)CC1` [THIOPROPERAZINE], for which the AC50 in [1] and in assay [2] was > 30 µM in each case.
Regarding `Cc1cc(CC(=O)O)n(C)c1C(=O)c1ccc(Cl)cc1` [ZOMEPIRAC], the AC50 in assay [2] and in assay [3] was > 30 µM in each case.

These data come from ChEMBL document CHEMBL5291721, “A preclinical secondary pharmacology resource illuminates target-adverse drug reaction associations of marketed drugs” (Nat Commun, 2023).
